According to patent publication US20230346827A1 (priority 2020, published 2023):
Marks after values point to notes of the source that are not given here.

What was measured:
[1] = target: T1, SARS-CoV-2 spike protein - ACE2 interaction (Severe acute respiratory syndrome coronavirus 2, UniProt P0DTC2); assay: RayBio COVID-19 Spike-ACE2 binding assay kit (ELISA); parameters: species or system SARS-CoV-2 / human; conditions: LMW-DS 3.0 to 600 µg/ml
T1 construct: purchased RayBio CoV-SACE2
Description: The RayBio® COVID-19 Spike-ACE2 binding assay kit (cat. number CoV-SACE2) was used as per the manufacturer’s instructions (ver 1.6) to assess the ability of LMW-DS to disrupt the interaction between SARS-CoV-2 spike protein and ACE2.
LMW-DS (ILB®, Tikomed AB, Viken, Sweden, WO 2016/076780) in saline was added in concentrations ranging from […] to 600 µg/ml.

rats subjected to sTBI = assay: sTBI rats, LMW-DS 15 mg/kg s.c.: HPLC of brain purine-pyrimidine/energy metabolites (Example 3); type: in vivo, rat
Description: The experimental protocol used in this study was approved by the Ethical Committee of the Catholic University of Rome, according to international standards and guidelines for animal care. Male Wistar rats of 300-350 g body weight (b.w.) were fed with standard laboratory diet and water ad libitum in a controlled environment.
They were divided into three groups: • 1) n = 6 animals subjected to sTBI, with drug administration after 30 minutes and sacrifice at 2 days post-TBI (Acute phase 1) • 2) n= 6 animals subjected to sTBI, with drug administration after 30 minutes and sacrifice at 7 days post-TBI (Acute phase 2). • 3) n= 6 animals subjected to sTBI, with drug administration after 3 days and sacrifice at 7 days post-TBI (Chronic phase).
As the anesthetic mixture, animals received 35 mg/kg b.w. ketamine and 0.25 mg/kg b.w. midazolam by i.p. injection. sTBI was induced by dropping a 450 g weight from 2 m height on to the rat head that had been protected by a metal disk previously fixed on the skull, according to the “weight drop” impact acceleration model (Marmarou et al., J Neurosurg. 1994; 80: 291-300). […] At the end of each period of treatment, rats were anesthetized again and then immediately sacrificed.
The drug treatment was a subcutaneous injection of 0.5 ml of LMW-DS (ILB®, Tikomed AB, Viken, Sweden, WO 2016/076780; 15 mg/kg) and administered according to the aforementioned schematic protocol.
An in vivo craniectomy was performed in all animals during anesthesia, after carefully removing the rat’s skull, the brain was exposed and removed with a surgical spatula and quickly dropped in liquid nitrogen. After the wet weight (w.w.) determination, tissue preparation was affected as previously disclosed (Tavazzi et al., Neurosurgery. 2005; 56: 582-589; Vagnozzi et al., Neurosurgery. 2007; 61: 379-388; Tavazzi et al., Neurosurgery. 2007; 61: 390-395; Amorini et al., J Cell Mol Med. 2017; 21: 530-542.). Briefly, whole brain homogenization was performed with 7 ml of ice-cold, nitrogen-saturated, precipitating solution composed by CH3CN + 10 mM KH2PO4, pH 7.40, (3:1; v:v), and using an Ultra-Turrax set at 24,000 rpm/min (Janke & Kunkel, Staufen, Germany). After centrifugation at 20,690 x g, for 10 min at 4° C., the clear supernatants were saved, pellets were supplemented with 3 ml of the precipitating solution and homogenized again as described above. A second centrifugation was performed (20,690 x g, for 10 min at 4° C.), pellets were saved, supernatants combined with those previously obtained, extracted by vigorous agitation with a double volume of HPLC-grade CHCl3 and centrifuged as above. The upper aqueous phases containing water-soluble low-molecular weight compounds were collected, subjected to chloroform washings for two more times (this procedure allowed the removal of all the organic solvent and of any lipid soluble compound from the buffered tissue extracts), adjusted in volumes with 10 mM KH2PO4, pH 7.40, to have ultimately aqueous 10% tissue homogenates and saved at -80° C. until assayed.
Aliquots of each deproteinized tissue samples were filtered through a 0.45 µm HV Millipore filter and loaded (200 µl) onto a Hypersil C-18, 250 × 4.6 mm, 5 µm particle size column, provided with its own guard column (Thermo Fisher Scientific, Rodano, Milan, Italy) and connected to an HPLC apparatus consisting of a Surveyor System (Thermo Fisher Scientific, Rodano, Milan, Italy) with a highly sensitive diode array detector (equipped with a 5 cm light path flow cell) and set up between 200 and 300 nm wavelength. Data acquisition and analysis were performed by a PC using the ChromQuest® software package provided by the HPLC manufacturer. […]

[2] = Acute phase 1: drug 30 min, sacrifice 2 d post-TBI
[3] = Acute phase 2: drug 30 min, sacrifice 7 d post-TBI
[4] = Chronic phase: drug 3 d, sacrifice 7 d post-TBI
[5] = after administration of LMW-DS 15 mg/kg

sodium salt of dextran sulfate [LMW-DS] was tested, and the “SARS-CoV-2 spike protein - ACE2 interaction” value [1] was “concentration dependent disruption”, the ASCORBIC ACID (rats subjected to sTBI; [2]) was 3733.10±277.88^a,d nmol/g (w.w.) and the CDP choline (rats subjected to sTBI; [2]) was 10.93±3.22^b,h nmol/g (w.w.). The CMP (rats subjected to sTBI; [2]) was 30.12±9.97^a,h nmol/g (w.w.), the CREATININE (rats subjected to sTBI; [2]) was 24.55±3.20^b,g,i nmol/g (w.w.) and the CYTIDINE (rats subjected to sTBI; [2]) was 15.40 ± 3.04 nmol/g (w.w.). For the same substance, the CYTOSINE (rats subjected to sTBI; [2]) was 17.69±2.50^b,d nmol/g (w.w.), the GSH (rats subjected to sTBI; [2]) was 2649.50±397.31^a,d nmol/g (w.w.) and the GUANINE (rats subjected to sTBI; [2]) was 4.80±1.24^b nmol/g (w.w.). The GUANOSINE (rats subjected to sTBI; [2]) was 20.71 ± 5.66 nmol/g (w.w.), the HYPOXANTHINE (rats subjected to sTBI; [2]) was 14.47±2.87^a nmol/g (w.w.) and the INOSINE (rats subjected to sTBI; [2]) was 92.55±31.20^c nmol/g (w.w.). For the same substance, the MDA (rats subjected to sTBI; [2]) was 12.47±2.09^a,c,g nmol/g (w.w.), the NO2 (rats subjected to sTBI; [2]) was 216.03±41.74^a nmol/g (w.w.) and the URACIL (rats subjected to sTBI; [2]) was 14.56 ± 5.44 nmol/g (w.w.). The URIC ACID (rats subjected to sTBI; [2]) was 23.62±3.77^a,d,h nmol/g (w.w.), the URIDINE (rats subjected to sTBI; [2]) was 76.35±12.85^a,c nmol/g (w.w.) and the XANTHINE (rats subjected to sTBI; [2]) was 9.46±2.34^d nmol/g (w.w.). The adenine (rats subjected to sTBI; [2]) was 44.82±6.31 ^a,d,g nmol/g (w.w.), the thymidine (rats subjected to sTBI; [2]) was 0.69 ± 0.11 nmol/g (w.w.) and the β-PSEUDOURIDINE (rats subjected to sTBI; [2]) was 6.65±1.30^g,i nmol/g (w.w.). The ASCORBIC ACID (rats subjected to sTBI; [3]) was 3512.58±224.62^a,e nmol/g (w.w.), the CDP choline (rats subjected to sTBI; [3]) was 6.91 ± 1.86 nmol/g (w.w.) and the CMP (rats subjected to sTBI; [3]) was 15.68±2.12^f,j nmol/g (w.w.). The CREATININE (rats subjected to sTBI; [3]) was 37.27±5.82^a,e,j nmol/g (w.w.), the CYTIDINE (rats subjected to sTBI; [3]) was 16.18±4.21^e nmol/g (w.w.) and the CYTOSINE (rats subjected to sTBI; [3]) was 15.70±4.10^f nmol/g (w.w.). The GSH (rats subjected to sTBI; [3]) was 2821.50±242.82^a,e nmol/g (w.w.), the GUANINE (rats subjected to sTBI; [3]) was 4.73 ± 1.07 nmol/g (w.w.) and the GUANOSINE (rats subjected to sTBI; [3]) was 17.90±3.24^j nmol/g (w.w.). For the same substance, the HYPOXANTHINE (rats subjected to sTBI; [3]) was 12.90±2.58^a,j nmol/g (w.w.), the INOSINE (rats subjected to sTBI; [3]) was 85.52±20.36^e nmol/g (w.w.) and the MDA (rats subjected to sTBI; [3]) was 4.82±1.73^a,e,i nmol/g (w.w.). For the same substance, the NO2 (rats subjected to sTBI; [3]) was 226.40±30.95^b nmol/g (w.w.), the URACIL (rats subjected to sTBI; [3]) was 19.40±7.52^a,e nmol/g (w.w.) and the URIC ACID (rats subjected to sTBI; [3]) was 19.17±2.15^a,h,i nmol/g (w.w.). The URIDINE (rats subjected to sTBI; [3]) was 63.02±9.66^b,e nmol/g (w.w.), the XANTHINE (rats subjected to sTBI; [3]) was 10.41±2.11^f nmol/g (w.w.) and the adenine (rats subjected to sTBI; [3]) was 58.16±6.36^a,f nmol/g (w.w.). The thymidine (rats subjected to sTBI; [3]) was 0.49±0.20^f nmol/g (w.w.), the β-PSEUDOURIDINE (rats subjected to sTBI; [3]) was 13.26±3.16^a,e,j nmol/g (w.w.) and the ASCORBIC ACID (rats subjected to sTBI; [4]) was 3375.03±856.41 ^a,e nmol/g (w.w.). The CDP choline (rats subjected to sTBI; [4]) was 8.37 ± 2.19 nmol/g (w.w.), the CMP (rats subjected to sTBI; [4]) was 20.51±3.73^a,f nmol/g (w.w.) and the CREATININE (rats subjected to sTBI; [4]) was 51.25±10.17^a,f nmol/g (w.w.). For the same substance, the CYTIDINE (rats subjected to sTBI; [4]) was 14.71±2.83^e nmol/g (w.w.), the CYTOSINE (rats subjected to sTBI; [4]) was 15.58±2.50^b,f nmol/g (w.w.) and the GSH (rats subjected to sTBI; [4]) was 2608.67±358.07^a,e nmol/g (w.w.). For the same substance, the GUANINE (rats subjected to sTBI; [4]) was 5.31±1.04^b nmol/g (w.w.), the GUANOSINE (rats subjected to sTBI; [4]) was 28.87±7.60^a,f nmol/g (w.w.) and the HYPOXANTHINE (rats subjected to sTBI; [4]) was 17.97±4.49^a nmol/g (w.w.). For the same substance, the INOSINE (rats subjected to sTBI; [4]) was 105.81±25.57^f nmol/g (w.w.), the MDA (rats subjected to sTBI; [4]) was 11.62±3.90^a,e nmol/g (w.w.) and the NO2 (rats subjected to sTBI; [4]) was 217.67±55.04^a nmol/g (w.w.). For the same substance, the URACIL (rats subjected to sTBI; [4]) was 16.57±2.99^a f nmol/g (w.w.), the URIC ACID (rats subjected to sTBI; [4]) was 27.77±3.60^a nmol/g (w.w.) and the URIDINE (rats subjected to sTBI; [4]) was 63.28±3.37^f nmol/g (w.w.). The XANTHINE (rats subjected to sTBI; [4]) was 9.35±0.83^f nmol/g (w.w.), the adenine (rats subjected to sTBI; [4]) was 52.94±8.59^a,f nmol/g (w.w.) and the thymidine (rats subjected to sTBI; [4]) was 0.71 ± 0.11 nmol/g (w.w.). The β-PSEUDOURIDINE (rats subjected to sTBI; [4]) was 18.62±2.80^a nmol/g (w.w.), the nitrate concentrations (rats subjected to sTBI; acute and chronic phases of sTBI) was “significantly decreased” and the MDA levels (rats subjected to sTBI; [5]) was “significant reduction”. For the same substance, the “ascorbic acid and GSH levels” value (rats subjected to sTBI; [5]) was “significant improvement” and the “NAA and its substrates, levels” value (rats subjected to sTBI; after sTBI, LMW-DS 15 mg/kg) was “significant improvements”.
